Measured values reported in US20210115104A1, “AMYLIN ANALOGUES” (Zealand Pharma A/S, priority 2015, published 2021).
*1 amine or outer side, *2 acyl side, *3 side chain or, on linkers, in order; H or OH if unused. Where a SMILES comes first, the peptide text is derived from it. Bridges are numbered along the chain shown (N, C = ends). [ ]: non-standard residue; d: D form. The star is where a group is joined. C20 diacid = O=C(O)CCCCCCCCCCCCCCCCCCC(=O)*; γGlu = O=C(O)[C@H](CCC(=O)[*:2])N[*:1]; Hyp = O=C(O)[C@@H]1C[C@@H](O)CN1; NMeI = CC[C@H](C)[C@H](NC)C(=O)O; Sar = CNCC(=O)O

Assays:
[1] = biological target: T1, human calcitonin receptor (hCTR2) (Homo sapiens, UniProt P30988); experiment: hCTR2 cAMP assay (AlphaScreen) in COS7 cells; format: cell-based; settings: cAMP induction, COS7 cells expressing hCTR2; Table 1; read-out: hCTR2 EC50
T1 construct: expressed in transfected cells
T1 sequence (P30988 25-474): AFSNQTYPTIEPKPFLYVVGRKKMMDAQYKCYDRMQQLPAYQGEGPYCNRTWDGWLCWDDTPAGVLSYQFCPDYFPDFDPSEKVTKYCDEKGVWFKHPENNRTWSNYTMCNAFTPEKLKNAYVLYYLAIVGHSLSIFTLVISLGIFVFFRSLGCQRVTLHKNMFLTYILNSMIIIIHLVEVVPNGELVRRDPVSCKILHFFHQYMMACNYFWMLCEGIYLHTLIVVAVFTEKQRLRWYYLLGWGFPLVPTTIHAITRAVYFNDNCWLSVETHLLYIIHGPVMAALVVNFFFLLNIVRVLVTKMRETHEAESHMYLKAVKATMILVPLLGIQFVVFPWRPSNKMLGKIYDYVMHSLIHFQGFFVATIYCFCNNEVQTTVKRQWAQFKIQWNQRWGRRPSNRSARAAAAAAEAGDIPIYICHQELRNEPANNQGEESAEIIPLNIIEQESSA
Source text: The cell line COS7, originating from African Green Monkey kidney fibroblast cells, was used for establishment of the stable cell lines described below. The COS7 cellular background was used due to it being RAMP naïve, and as such it provides the best available system for testing of the monomeric hCTR and different heterodimeric amylin receptor subtypes functionally generated by introduction of the individual RAMPs.
A cell line expressing the human calcitonin receptor (hCTR2) was generated in the COS7 cellular background as stable clones. In brief, hCTR2 (GI: 4502547) was amplified by PCR using primers encoding terminal restriction sites for subcloning. The 5′-end primers additionally encoded a near Kozak consensus sequence to ensure efficient translation. The fidelity of the DNA encoding the receptor was confirmed by DNA sequencing. The PCR products encoding the receptor were subcloned into a mammalian expression vector containing a neomycin (G418) resistance marker. The mammalian expression vector encoding the receptor was transfected into COS7 cells by a standard liposome transfection method. 48 hours post-transfection, cells were seeded for limited dilution cloning and selected with 1 mg/ml G418 in the culture medium. After 3 weeks, surviving colonies of hCTR2-expressing cells were picked, propagated and tested in the amylin efficacy assay as described in Example 3 below. One hCTR2-expressing clone was chosen for compound profiling.
In vitro activity of test peptides at the hCTR2 and hAMYR3 receptors was assessed by measuring the induction of cAMP following stimulation of the receptor using the AlphaScreen® cAMP Assay kit from Perkin-Elmer.
Briefly, COS7 cells expressing hCTR2 (see Example 2, above) were seeded at 30-40,000 cells per well in 96-well microtiter plates coated with 0.01% poly-L-lysine, and grown for 1 day in culture in 100 μl growth medium [DMEM, 10% FCS, Penicillin (100 IU/ml), Streptomycin (100 μg/ml)]. On the day of analysis, growth medium was removed and the cells were washed once with 200 μl Tyrode buffer [Tyrode's Salts (9.6 g/I), 10 mM HEPES, pH 7.4]. Cells were incubated in 100 μl Tyrode buffer containing increasing concentrations of test peptides, 100 µM IBMX and 0.1% casein for 15 min at 37° C. The reaction was stopped by carefully decanting off the compound/buffer medium and replacing it with lysis/detection buffer (80 μl 0.1% w/v BSA, 5 mM HEPES, 0.3% v/v Tween-20 in deionized water). After incubation at room temperature for 10 min., the cAMP content of the resulting cell lysate was estimated according to the AlphaScreen® cAMP Assay manufacturer's instructions. EC50 values were estimated by computer-aided curve fitting using the 4-parameter logistic (4PL) non-linear model.

[2] = Assessment of physical stability (Thioflavin T fibrillation); format: physicochemical; parameters: key: FND = fibrillation not detected; FD = fibrillation detected; settings: 1 mg/ml, 40° C., ThT; for Fibrillation pH 4.0 (Ac): 50 mM acetate buffer pH 4.0, 96 hours; for Fibrillation pH 7.0 (His): 50 mM histidine buffer pH 7.0, 96 hours; for Fibrillation pH 7.0 (Phos.): 50 mM phosphate buffer pH 7.0, 96 hours
Procedure, shortened: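 Fibrillation lag-time, in hours, taken where regressions of the initial stable phase and the growth phase intersect. ThT (40 μM) fluorescence monitored at 40 °C for 96 h, 10-min reads each preceded by 300 s mixing. Peptide at 1 mg/ml in 50 mM buffers: phosphate or histidine pH 7.0, acetate pH 4.0.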

[3] = Assessment of chemical stability (RP-HPLC normalized purity); format: physicochemical; settings: 7 days, 40° C., Table 1; for Normalized purity after 7 days, 40° C., pH 4: pH 4, 0.2 mg/ml; for Normalized purity after 7 days, 40° C., pH 6: pH 6, 0.2 mg/ml; for Normalized purity after 7 days, 40° C., pH 7.5: pH 7.5, 0.2 mg/ml; for Normalized purity after 7 days, 40° C., pH 9: pH 9, 0.2 mg/ml
Protocol: Samples of each test peptide were dissolved in MilliQ™ water, and the pH of the solution was adjusted to pH 4, pH 6, pH 7.5 or pH 9, respectively, using either HCl or NaOH. The final peptide concentration was 0.2 mg/ml. Samples were placed in glass vials and incubated at 40° C. The samples were analyzed by RP-HPLC on a C8 column with gradient elution using an ammonium formate/water eluent system, or on a C18 column with gradient elution using a trifluoroacetic acid/water eluent system. The area-percentage (area-%) of the main peak after incubation time T=t (relative to time T=0) was determined by UV spectroscopy at 220 nm.
The purity was first determined as follows:
Purity(area-%)=(area of main peak/total area of all peaks)×100.
The purity was then normalized between time points by setting purity at time 0 (T=0) to 100 for each pH value for a given peptide, as follows:
Normalised area-% at time t (T=t)=[area-%(T=t)/area-%(T=0)]×100.
The normalized purity values in Table 1 were determined after 7 days of incubation.
The chemical stability assessment described in Example 6 was repeated for four pairs of compounds, each differing only by the presence or absence of an Asn-Asn (N—N) doublet at positions 21 and 22.

Compound | EC50 [1] [nM] | Fibrillation pH 4.0 (Ac) [2] | Fibrillation pH 7.0 (His) [2] | Fibrillation pH 7.0 (Phos.) [2] | Normalized purity after 7 days, 40° C., pH 4 [3] | Normalized purity after 7 days, 40° C., pH 6 [3] | Normalized purity after 7 days, 40° C., pH 7.5 [3] | Normalized purity after 7 days, 40° C., pH 9 [3]
CC[C@H](C)[C@@H](C(=O)N[C@@H](CC(C)C)C(=O)N[C@@H](CO)C(=O)N[C@@H](CO)C(=O)N[C@H](C(=O)N[C@@H](CCC(=O)O)C(=O)N[C@H](C(=O)NCC(=O)N[C@@H](CO)C(=O)N[C@@H](CC(N)=O)C(=O)N[C@H](C(=O)N1CCC[C@H]1C(N)=O)[C@@H](C)O)C(C)C)[C@@H](C)O)N(C)C(=O)[C@H](C)NC(=O)CN(C)C(=O)[C@H](Cc1ccccc1)NC(=O)[C@H](CO)NC(=O)[C@H](CO)NC(=O)[C@H](CCCNC(=N)N)NC(=O)[C@H](Cc1c[nH]cn1)NC(=O)[C@H](CC(C)C)NC(=O)[C@H](Cc1ccccc1)NC(=O)[C@H](Cc1c[nH]cn1)NC(=O)[C@H](C)NC(=O)[C@H](CC(C)C)NC(=O)[C@H](CCCNC(=N)N)NC(=O)[C@H](CCC(N)=O)NC(=O)[C@@H](NC(=O)[C@H](C)NC(=O)[C@@H]1CSSC[C@H](NC(=O)[C@H](CCCNC(=N)N)NC(=O)CC[C@H](NC(=O)CCCCCCCCCCCCCCCCCCC(=O)O)C(=O)O)C(=O)N[C@@H](CC(N)=O)C(=O)N[C@@H]([C@@H](C)O)C(=O)N[C@@H](C)C(=O)N[C@@H]([C@@H](C)O)C(=O)N1)[C@@H](C)O [Compound 16, [19CD]-isoGlu-R-C( )-NTAT-C( )-ATQRLAHFLHRSSF-Gly(Me)-A-Ile(Me)-LSSTEVGSNTP-NH2] ({C20 diacid-γGlu}-RCNTATCATQRLAHFLHRSSF[Sar]A[NMeI]LSSTEVGSNTP-NH2; disulfide 2-7) | 0.073 | FD | FD | FND | A (A = >90%) | A (A = >90%) | A (A = >90%) | B (B = 70-90%)
CC[C@H](C)[C@@H](C(=O)N[C@@H](CC(C)C)C(=O)N[C@@H](CO)C(=O)N[C@@H](CO)C(=O)N[C@H](C(=O)N[C@@H](CCC(=O)O)C(=O)N[C@H](C(=O)NCC(=O)N[C@@H](CO)C(=O)N[C@@H](CC(N)=O)C(=O)N[C@H](C(=O)N1C[C@H](O)C[C@H]1C(N)=O)[C@@H](C)O)C(C)C)[C@@H](C)O)N(C)C(=O)[C@H](C)NC(=O)CN(C)C(=O)[C@H](Cc1ccccc1)NC(=O)[C@H](CO)NC(=O)[C@H](CO)NC(=O)[C@H](CCCNC(=N)N)NC(=O)[C@H](CCC(N)=O)NC(=O)[C@H](CC(C)C)NC(=O)[C@H](Cc1ccccc1)NC(=O)[C@H](Cc1c[nH]cn1)NC(=O)[C@H](C)NC(=O)[C@H](CC(C)C)NC(=O)[C@H](CCCNC(=N)N)NC(=O)[C@H](CCC(N)=O)NC(=O)[C@@H](NC(=O)[C@H](C)NC(=O)[C@@H]1CSSC[C@H](NC(=O)[C@H](CCCNC(=N)N)NC(=O)CC[C@H](NC(=O)CCCCCCCCCCCCCCCCCCC(=O)O)C(=O)O)C(=O)N[C@@H](CC(N)=O)C(=O)N[C@@H]([C@@H](C)O)C(=O)N[C@@H](C)C(=O)N[C@@H]([C@@H](C)O)C(=O)N1)[C@@H](C)O [Compound 58, [19CD]-isoGlu-R-C( )-NTAT-C( )-ATQRLAHFLQRSSF-Gly(Me)-A-Ile(Me)-LSSTEVGSNT-Hyp-NH2] ({C20 diacid-γGlu}-RCNTATCATQRLAHFLQRSSF[Sar]A[NMeI]LSSTEVGSNT[Hyp]-NH2; disulfide 2-7) | 0.05 | FND | FD | FND | A (A = >90%) | A (A = >90%) | B (B = 70-90%) | B (B = 70-90%)
CC[C@H](C)[C@@H](C(=O)N[C@@H](CC(C)C)C(=O)N[C@@H](CO)C(=O)N[C@@H](CO)C(=O)N[C@H](C(=O)N[C@@H](CCC(=O)O)C(=O)N[C@H](C(=O)NCC(=O)N[C@@H](CO)C(=O)N[C@@H](CC(N)=O)C(=O)N[C@H](C(=O)N1C[C@H](O)C[C@H]1C(N)=O)[C@@H](C)O)C(C)C)[C@@H](C)O)N(C)C(=O)[C@H](C)NC(=O)CN(C)C(=O)[C@H](Cc1ccccc1)NC(=O)[C@H](CCCNC(=N)N)NC(=O)[C@H](CCC(N)=O)NC(=O)[C@H](CC(C)C)NC(=O)[C@H](Cc1ccccc1)NC(=O)[C@H](Cc1c[nH]cn1)NC(=O)[C@H](C)NC(=O)[C@H](CC(C)C)NC(=O)[C@H](CCCNC(=N)N)NC(=O)[C@H](CCC(=O)O)NC(=O)[C@@H](NC(=O)[C@H](C)NC(=O)[C@@H]1CSSC[C@H](NC(=O)[C@H](CCCNC(=N)N)NC(=O)CC[C@H](NC(=O)CCCCCCCCCCCCCCCCCCC(=O)O)C(=O)O)C(=O)NCC(=O)N[C@@H]([C@@H](C)O)C(=O)N[C@@H](C)C(=O)N[C@@H]([C@@H](C)O)C(=O)N1)[C@@H](C)O [Compound 77, [19CD]-isoGlu-R-C( )-GTAT-C( )-ATERLAHFLQRF-Gly(Me)-A-Ile(Me)-LSSTEVGSNT-Hyp-NH2] ({C20 diacid-γGlu}-RCGTATCATERLAHFLQRF[Sar]A[NMeI]LSSTEVGSNT[Hyp]-NH2; disulfide 2-7) | 0.16 | FND | FND | FND | A (A = >90%) | A (A = >90%) | B (B = 70-90%) | B (B = 70-90%)
